Among the data in US20190327974A1, “SYNERGISTS FOR IMPROVED PESTICIDES” (priority 2017, published 2019) are Ki values, retold here.

What is called Ki is a dissociation constant, usually derived from enzyme kinetics or from competition with a known ligand.

The target of one assay is T1, Gly137Asp LcαE7 (Lucilia cuprina, UniProt Q25252, G137D).
T1 sequence (Q25252 1-570 G137D): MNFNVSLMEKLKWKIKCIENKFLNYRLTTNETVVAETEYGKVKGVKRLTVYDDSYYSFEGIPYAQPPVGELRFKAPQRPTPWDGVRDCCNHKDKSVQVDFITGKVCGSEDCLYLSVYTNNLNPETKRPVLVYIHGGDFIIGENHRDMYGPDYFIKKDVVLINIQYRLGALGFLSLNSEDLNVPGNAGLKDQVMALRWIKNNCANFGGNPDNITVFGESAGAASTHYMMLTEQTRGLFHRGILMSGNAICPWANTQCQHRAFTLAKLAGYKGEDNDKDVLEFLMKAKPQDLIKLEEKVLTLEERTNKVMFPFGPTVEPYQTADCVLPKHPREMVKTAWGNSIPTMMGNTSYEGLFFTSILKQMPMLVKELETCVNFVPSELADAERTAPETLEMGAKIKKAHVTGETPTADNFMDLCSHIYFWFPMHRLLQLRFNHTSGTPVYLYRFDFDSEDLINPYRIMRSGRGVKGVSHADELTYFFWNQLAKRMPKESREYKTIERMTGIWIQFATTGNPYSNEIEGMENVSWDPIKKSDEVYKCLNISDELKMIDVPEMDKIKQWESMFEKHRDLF
The assay can be described thus: Enzyme inhibition assay with 4-nitrophenol butyrate, Gly137Asp variant. It counts as biochemical.
Details: not given
Here is the method: Inhibition of wild-type αE7 and the Gly137Asp αE7 variant was determined by a competition assay between the native-substrate analogue 4-nitrophenol butyrate (Sigma) and the boronic acid compounds. Initially, the Michalis constant (KM) with 4-nitrophenol butyrate was measured for both enzymes to determine an appropriate concentration of substrate for use in the competition assays. Formation of the 4-nitrophenolate product of hydrolysis was monitored at 405 nm in the presence of enzyme and eight different concentrations of substrate. 4-nitrophenol butyrate was prepared in methanol to 100 mM and serially diluted 1-in-2 to achieve concentrations from 100 mM to 0.8 mM. Enzyme stocks were prepared in 4 mg/ml bovine serum albumin (Sigma) to maintain enzyme stability. Reactions were prepared by pipetting 178 μl assay buffer (100 mM NaCl, 20 mM HEPES pH 7.5) and 2 μl substrate (final concentrations of 1000 to 8 μM) into 300 μl wells of a 96-well plate. The reaction was initiated by the addition of 20 μl enzyme (final concentration 2.5 nM for wildtype αE7 and 4 nM for Gly137Asp αE7). Product formation was monitored for four minutes at room temperature using an Epoch microplate spectrophotometer (BioTek) and the initial rates of ester hydrolysis were determined by linear regression using GraphPad Prism. The Michalis constant was determined by fitting the initial rates to the Michalis-Menton equation (FIG. 10).
Enzyme inhibition with the boronic acid compounds was determined by assaying the initial rate of 4-nitrophenol butyrate hydrolysis in the presence of either neat DMSO or the boronic acid compounds in DMSO. Compounds were prepared by serially diluting 1-in-3 an initial 10 mM stock to achieve concentrations from 10 mM to 2 nM. Reactions were prepared by pipetting 178 μl assay buffer supplemented with substrate to a final concentration equal to the KM of the enzyme (15 μM for wildtype αE7 and 250 μM for Gly137Asp αE7) into wells of a 96-well plate. 2 μl neat DMSO or 2 μl serially diluted inhibitor (final concentrations of 100 μM to 20 pM) were added to the wells. The reaction was initiated by the addition of 20 μl enzyme (final concentration 0.5 nM for wildtype αE7 and 10 nM for Glyl37Asp αE7). Product formation was monitored for four minutes at room temperature and the initial rates of ester hydrolysis were determined by linear regression. To determine the concentration of boronic acid compounds required to inhibit 50% of esterase activity (IC50), a four-parameter sigmoidal dose-response curve was fitted to percentage inhibition using GraphPad Prism (FIGS. 7 and 8). Ki values were determined using the Cheng-Prusoff equation assuming competitive inhibition (Yung-Chi, C. & Prusoff W. H. Relationship between the inhibition constant (KI) and the concentration of inhibitor which causes 50 percent inhibition (150) of an enzymatic reaction. Biochem. Pharmacol. 22, 3099-3108 (1973)).
The two most common CBE-mediated insecticide resistance mechanisms involve increased protein expression, or mutation to gain new catalytic (OP-hydrolase) functions. Compounds 1 to 5 were tested against the resistance associated Gly137Asp variant of LcαE7^17,27 (Table 1). The Glyl37Asp mutation is located in the oxyanion hole and positions a new general base in the active site to catalyze dephosphorylation of the catalytic serine. Thus, compounds that inhibit WT LcαE7 as well as this common resistance associated Glyl37Asp variant would increase the efficacy of OPs by targeting both detoxification routes. Encouraged by the activity of the boronic acids 1 to 5, the compounds were tested against the Gly137Asp variant of LcαE7 (Table 1).
`Cc1ccc(B(O)O)cc1Br` [Compound 1] returned an inhibition constant Ki of 49 nM.

Turning to `Cc1ccc(B(O)O)cc1OCc1ccccc1` [Compound 2], the Ki was determined as 29 nM.

Compound `OB(O)c1cc(Br)cc(N2CCCCC2)c1` [Compound 3.3] had an inhibitory constant (Ki) of 150 nM.

On to `CN1CCN(c2cc(Br)cc(B(O)O)c2)CC1` [Compound 3.4], for which the Ki is 1000 nM.

`OB(O)c1cc(Br)cc2c1OCC2` [Compound 3.5] displayed a Ki of 440 nM.

With `OB(O)c1cc(Br)c2ccccc2c1F` [Compound 3.6], the Ki was found to be 71 nM.

The compound `CC(C)Oc1cc(Br)cc(B(O)O)c1` [Compound 3.7, 3-Bromo-5-isopropoxyphenylboronic acid] displayed a Ki of 76 nM.

Consider `OB(O)c1cc(Br)cc(OC(F)(F)F)c1` [Compound 3.8], for which the inhibition constant Ki stood at 110 nM.

In turn, `OB(O)c1cc(Br)cc(OCc2ccccc2)c1` [Compound 3.9] displayed an inhibition constant Ki of 25 nM.

Regarding `OB(O)c1cc(Br)cc(Oc2ccccc2)c1` [Compound 3.10, 3-Bromo-5-phenoxyfenylboronic acid], the Ki stood at 18 nM.

As for `O=C(c1cc(Cl)cc(B(O)O)c1)N1CCOCC1` [Compound 3.11], the affinity, expressed as Ki, was 1000 nM.

`CC(C)(C)Oc1ccc(B(O)O)cc1Br` [Compound 3.12] came in with an inhibition constant Ki of 990 nM.

For the compound `OB(O)c1cc(Br)cc(N2CCCC2)c1` [Compound 3], the Ki came to 110 nM.

Compound `OB(O)c1ccc2ccccc2c1` [Compound 4] displayed a Ki of 190 nM.

As for `OB(O)c1ccc(OCc2ccccc2F)c(Cl)c1` [Compound 5, 3-Chloro-4(2′-fluorobenzyloxy) phenylboronic acid], the affinity corresponds to a Ki of 170 nM.

As to `OB(O)c1ccccc1` [PBA, phenylboronic acid, reference compound], the inhibition constant (Ki) was determined as 450 nM.

The assay is the same for the next values; noted with them: Cheng-Prusoff from dose-response; 4-nitrophenol butyrate; read-out: Ki Gly137Asp LcαE7.
On to `OB(O)c1cc(Br)cc(N2CCOCC2)c1` [Compound 3.1], for which the inhibitory constant (Ki) worked out at 430 nM.
